The subject of one assay is Erdman (mmpR5 E21K). The format is cell-based, M. tuberculosis.
A further assay relates to Mtb H37Rv. It counts as cell-based, M. tuberculosis.
A further assay concerns H37Rv. In words: microbe, parasite or virus in culture. The note with it: Mycobacterium tuberculosis, read-out: MIC. The format is cell-based.
A further assay deals with WT Mtb Erdman. It counts as cell-based, M. tuberculosis. The note with it: area under the dose-response curve.
Assay [1] deals with mixed mmpL3 mutant pool (24 unique Mtb mmpL3 mutants). The format is cell-based, M. tuberculosis.
Another assay has as its system H37Rv (gyrA D94K). The format is cell-based, M. tuberculosis.
In another assay the test system is Mtb. Conditions: cited from earlier work.
The next assay has as its system H37Rv (rpoB S450L). It counts as cell-based, M. tuberculosis.

The structures appear in SMILES notation. In brackets after ≈: the same amount, converted by molar mass.

Broadly, the EC50 is the concentration needed to bring the measured effect to its halfway point. Higher therefore signals weaker potency.

In the assay on Erdman (mmpR5 E21K), `COc1nc2ccc(Br)cc2cc1[C@@H](c1ccccc1)[C@@](O)(CCN(C)C)c1cccc2ccccc12` [Bedaquiline] yielded an EC50 of 910 nM. For the same compound, in the assay with Mtb H37Rv, the “Frequency of resistance, 2 × MIC” value is 1.43 × 10^−7; the “Frequency of resistance, 8 × MIC” value was 3.57 × 10^−8; the “Frequency of resistance, 16 × MIC” value is reported as 3.57 × 10^−8. For the same compound, the MIC in the assay with H37Rv amounted to 2 µg/mL (≈ 3.6 µM).

Compound `CC(C)/N=c1\cc2n(-c3ccc(Cl)cc3)c3ccccc3nc-2cc1Nc1ccc(Cl)cc1` [Clofazimine] had an EC50 in the assay with Erdman (mmpR5 E21K) of 1600 nM.

For the compound `CC[C@@H](CO)NCCN[C@@H](CC)CO` [Ethambutol], in the assay with Mtb H37Rv, the “Frequency of resistance, 2 × MIC” value was 3.61 × 10^−6; the “Frequency of resistance, 8 × MIC” value was 8.57 × 10^−7; the “Frequency of resistance, 16 × MIC” value is reported as 1.79 × 10^−8. Besides, in the assay with H37Rv, the MIC turned out to be 1 µg/mL (≈ 4.89 µM).

Turning to `Cc1ccc2nc(SCC(=O)N(C(C)C)C(C)C)[nH]c2c1` [HC2183], in the assay on WT Mtb Erdman, the “WT AUC” value was 101.7. Also, the “Mixed mmpL3 AUC” value in assay [1] is reported as 34.08.

For `NNC(=O)c1ccncc1` [Isoniazid], in the assay on H37Rv (gyrA D94K), the “MIC, H37Rv (gyrA D94K)” value was 0.2 µM (≈ 0.0274 µg/mL). In addition, the “in vitro frequency of resistance (FoR)” value with Mtb was 10^−6. The “MIC, H37Rv (rpoB S450L)” value in the assay with H37Rv (rpoB S450L) was found to be 0.4 µM (≈ 0.0549 µg/mL). Besides, in the assay with Mtb H37Rv, the “Frequency of resistance, 2 × MIC” value is 5.0 × 10^−6; the “Frequency of resistance, 8 × MIC” value is listed as 3.93 × 10^−6; the “Frequency of resistance, 16 × MIC” value is recorded as 2.71 × 10^−6. Also, the MIC with H37Rv was found to be 0.125 µg/mL (≈ 0.911 µM).

Consider `Cc1cc2nc(SCC(=O)N(C(C)C)C(C)C)[nH]c2cc1C` [MSU-42766], for which, in the assay on H37Rv (gyrA D94K), the “MIC, H37Rv (gyrA D94K)” value was 1.5 µM (≈ 0.479 µg/mL). Further, the EC50 in the assay on Erdman (mmpR5 E21K) worked out at 1800 nM. Besides, the “WT AUC” value in the assay on WT Mtb Erdman amounted to 169.9. For the same compound, in the assay on H37Rv (rpoB S450L), the “MIC, H37Rv (rpoB S450L)” value was 0.8 µM (≈ 0.256 µg/mL) and the “activity (MIC) against the rpoB S450L strain” value was 0.25 µg/mL. Also, in the assay with Mtb H37Rv, the “Frequency of resistance, 2 × MIC” value is on record as 1.36 × 10^−6; the “Frequency of resistance, 8 × MIC” value is recorded as 8.0 × 10^−8; the “Frequency of resistance, 16 × MIC” value amounted to 0. In the assay on H37Rv, the MIC came to 0.5 µg/mL (≈ 1.57 µM). Further, the “Mixed mmpL3 AUC” value in assay [1] is 73.44.

Turning to `CC(C)N(C(=O)CNc1nc2cc(Cl)c(Cl)cc2[nH]1)C(C)C` [MSU-43165], in the assay on WT Mtb Erdman, the “WT AUC” value came to 214.5. Moreover, the “Mixed mmpL3 AUC” value in assay [1] came out at 147.2.

As to `CC(C)N(C(=O)COc1nc2cc(Cl)c(Cl)cc2[nH]1)C(C)C` [MSU-43170], the “WT AUC” value in the assay with WT Mtb Erdman was 247.5. For the same compound, the “Mixed mmpL3 AUC” value in assay [1] came out at 160.3.

`COc1c(N2C[C@@H]3CCCN[C@@H]3C2)c(F)cc2c(=O)c(C(=O)O)cn(C3CC3)c12` [Moxifloxacin]: the “MIC, H37Rv (gyrA D94K)” value against H37Rv (gyrA D94K) is >5.0 µM. In the assay with H37Rv (rpoB S450L), the “MIC, H37Rv (rpoB S450L)” value was determined as 0.15 µM (≈ 0.0602 µg/mL).

`CC1COc2c(N3CCN(C)CC3)c(F)cc3c(=O)c(C(=O)O)cn1c23` (centres unmarked) [Ofloxacin]: in the assay with Mtb H37Rv, the “Frequency of resistance, 2 × MIC” value is reported as 5.36 × 10^−7; the “Frequency of resistance, 8 × MIC” value was 7.14 × 10^−8; the “Frequency of resistance, 16 × MIC” value was 3.57 × 10^−8. In addition, in the assay on H37Rv, the MIC worked out at 1 µg/mL (≈ 2.77 µM).

For `O=[N+]([O-])c1cn2c(n1)OC[C@@H](OCc1ccc(OC(F)(F)F)cc1)C2` [Pretomanid], in the assay with Mtb H37Rv, the “Frequency of resistance, 2 × MIC” value was 1.79 × 10^−6; the “Frequency of resistance, 8 × MIC” value is 8.57 × 10^−7; the “Frequency of resistance, 16 × MIC” value is reported as 1.43 × 10^−7. The MIC in the assay on H37Rv amounted to 0.5 µg/mL (≈ 1.39 µM).

In the case of `CO[C@H]1/C=C/O[C@@]2(C)Oc3c(C)c(O)c4c(O)c(c(/C=N/N5CCN(C)CC5)c(O)c4c3C2=O)NC(=O)/C(C)=C\C=C\[C@H](C)[C@H](O)[C@@H](C)[C@@H](O)[C@@H](C)[C@H](OC(C)=O)[C@@H]1C` [Rifampicin], in the assay on Mtb H37Rv, the “Frequency of resistance, 2 × MIC” value is reported as 5.36 × 10^−7; the “Frequency of resistance, 8 × MIC” value is reported as 7.14 × 10^−8; the “Frequency of resistance, 16 × MIC” value is 3.57 × 10^−8. For the same compound, the MIC in the assay on H37Rv worked out at 0.5 µg/mL (≈ 0.608 µM).

Source of the values: PMC10783087 (Microbiology Spectrum, 2023).
